{
  "source": "patent US20150366862A1",
  "about": "“Use of flibanserin for the treatment of pre-menopausal sexual desire disorders” (Sprout Pharmaceuticals, Inc., priority 2005, published 2015)",
  "key": {"5-HT-1A receptor": {"molecular_target": "T1, 5-HT-1A receptor (Homo sapiens, UniProt P08908)", "T1 sequence (P08908 1-422)": "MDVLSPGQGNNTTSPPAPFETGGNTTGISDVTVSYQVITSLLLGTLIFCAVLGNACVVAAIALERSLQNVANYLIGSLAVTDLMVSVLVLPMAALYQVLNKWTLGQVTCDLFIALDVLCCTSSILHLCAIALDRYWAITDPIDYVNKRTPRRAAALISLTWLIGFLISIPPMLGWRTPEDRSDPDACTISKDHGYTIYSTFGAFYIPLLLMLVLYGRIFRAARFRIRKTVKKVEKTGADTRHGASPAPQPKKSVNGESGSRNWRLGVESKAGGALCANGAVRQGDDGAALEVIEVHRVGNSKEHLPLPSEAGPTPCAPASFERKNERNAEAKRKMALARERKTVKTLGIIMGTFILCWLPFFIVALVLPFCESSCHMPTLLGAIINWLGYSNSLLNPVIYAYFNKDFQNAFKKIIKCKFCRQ", "settings": "background statement, no value given; cited from earlier work"}, "[1]": {"system": "pre-menopausal female patients with HSDD", "assay": "twelve-week randomized, double-blind, placebo-controlled proof of concept trial in pre-menopausal female patients with HSDD (IVR-FSBQ)", "type": "in vivo, human", "method": "This trial was designed as a prospective, multi-center, twelve-week, randomized, double-blind, placebo-controlled, proof of concept, parallel-group trial comparing the effects of flibanserin (maximum total daily dose: 100 mg b.i.d.) to placebo in pre-menopausal female patients with HSDD. Seventy-five patients were to be randomized to each treatment group.\nThis proof of concept trial was designed to assess whether twelve weeks of flibanserin treatment produced a clinically meaningful therapeutic response in healthy female patients with HSDD (as determined by DSM-IV criteria). Efficacy for flibanserin was assessed versus a parallel placebo group.\nAfter a Screening period (no treatment) of approximately twenty-eight days, eligible patients were randomized into the twelve week, double-blind portion of the trial during which they were to take study medication in the morning and in the evening about 12 hours apart.\nPatients must have been pre-menopausal females who were 18 to 45 years of age with the primary diagnosis of HSDD, acquired type, according to DSM-IV criteria. The current episode must have been at least 24 weeks in duration by the Baseline Visit.\nThe baseline severity criterion was from the Arizona Sexual Experiences Scale, requiring a score of 5 or 6 (very weak or no sex drive) on the sex drive item. […]"}, "5-HT2-receptor": {"system": "5-HT2-receptor", "settings": "background statement, no value given; cited from earlier work"}},
  "data": [
    {"smiles": "O=c1[nH]c2ccccc2n1CCN1CCN(c2cccc(C(F)(F)F)c2)CC1", "note": "[flibanserin, 1-[2-(4-(3-trifluoromethyl-phenyl)piperazin-1-yl)ethyl]-2,3-dihydro-1H-benzimidazol-2-one]", "values": [
      {"measurement": "affinity for the 5-HT-1A receptor", "setting": "5-HT-1A receptor", "result": "shows affinity"},
      {"measurement": "IVR-FSBQ Frequency of Sexual Thoughts, monthly mean change from baseline vs placebo", "setting": "[1]; pre-menopausal women with HSDD, 50 mg b.i.d. (up to 100 mg b.i.d. from Week 8), 12 weeks, FAS, LOCF, FIG. 1", "result": "clearly demonstrates the efficacy"},
      {"measurement": "sexual desire enhancing properties", "setting": "[1]; studies of pre-menopausal female patients suffering from sexual dysfunction", "result": "displays sexual desire enhancing properties"},
      {"measurement": "affinity for the 5-HT2-receptor", "setting": "5-HT2-receptor", "result": "shows affinity"}
    ]}
  ]
}
